For test [1], the target named is Human immunodeficiency virus type 1 reverse transcriptase (Human immunodeficiency virus 1, UniProt Q72547, K103N). Description: Compound was tested for inhibitory activity against HIV-1 mutant type reverse transcriptase (K103N).
The target in test [2] is Human immunodeficiency virus type 1 reverse transcriptase (Human immunodeficiency virus 1, UniProt Q72547, P236L). In words: Compound was tested for inhibitory activity against HIV-1 mutant type reverse transcriptase (P236L).
The target of test [3] is T1, Human immunodeficiency virus type 1 reverse transcriptase (Human immunodeficiency virus 1, UniProt Q72547). Description: Compound was tested for inhibitory activity against HIV-1 mutant type reverse transcriptase ([…]).
Test [4] has as its target Human immunodeficiency virus type 1 reverse transcriptase (Human immunodeficiency virus 1, UniProt Q72547, Y181C). In words: Compound was tested for inhibitory activity against HIV-1 mutant type reverse transcriptase (Y181C).
The target of test [5] is T1, Human immunodeficiency virus type 1 reverse transcriptase. In words: Compound was tested for inhibitory activity against HIV-1 wild type reverse transcriptase.

In general, IC50 refers to the concentration at which inhibition is half-maximal. The low end stands for greater potency in that assay, the high end for weaker potency in that assay. As for `CCN1c2ncccc2C=Cc2cccnc21`, the IC50 stood at 1500 nM in test [1]; 10 nM in test [2]; 230 nM in test [3]; 2500 nM in test [4]; 40 nM in test [5].

Take `C1=Cc2cccnc2N(C2CC2)c2ncccc21`: the IC50 was 630 nM in test [1]; 10 nM in test [2]; 150 nM in test [3]; 960 nM in test [4]; 20 nM in test [5].

Values taken from ChEMBL document CHEMBL1130928 (Bioorg Med Chem Lett, 1998).
